Measured values as given in PMC10888562 (International Journal of Molecular Sciences, 2024).
“And” between values parts separate entries of the source, which are not always exact repeats. Equal values may be shown once.

Assays:
[1] = test system: HT29 colon cells; test: DCFDA cellular ROS production assay; type: cell-based, human; settings: GI50 drug concentration (TBHP 20 μM)
Method: All values are expressed as relative fluorescence units (RFU).
To evaluate the presence of ROS in treated cells, a DCFDA/H2DCFDA-cellular ROS Assay Kit (Abcam, Cambridge, MA, USA) was used, as previously described. A total of 25,000 cells/mL of HT29 cells in DMEM were seeded in 96-well plates. Cells were washed with 1X kit buffer, and then stained with 25 μM 2′,7′-dichlorofluorescein diacetate (DCFH-DA) and incubated for 45 min. DCFH-DA was then removed, and cells were then re-washed with 1X kit buffer, after which phenol red free media was added. Cells were then treated with a GI50 drug concentration for each complex. The plates were directly scanned to measure fluorescence (relative fluorescence units (RFU)) at the time points indicated the Glo-Max®-Multimode microplate reader (Promega Corporation, Alexandra, VIC, Australia) at an excitation/emission of 485/535 nm, which is directly correlated to the DCFH-DA that is deacetylated by cellular esterases and then oxidised by ROS to the fluorescent compound DCF. To generate the positive control (20 μM tert-butyl hydroperoxide (TBHP)), cells were washed with 1X kit buffer, and stained with DCFDA (25 μM) for 45 min; this was removed and TBHP was added in phenol red free media, and the resulting solution was scanned as described above.

[2] = test system: MCF-7 breast; test: MTT cell viability assay (GI50), MCF-7; type: cell-based, human; settings: for SCI: GI50 (MCF10A)/GI50 (MCF-7); for GI50: MCF-7 breast, MTT
[3] = test system: A2780 ovarian; test: MTT cell viability assay (GI50), A2780; type: cell-based, human; settings: for SCI: GI50 (MCF10A)/GI50 (A2780); for GI50: A2780 ovarian, MTT
[4] = test system: HT29 colon; test: MTT cell viability assay (GI50), HT29; type: cell-based, human; settings: for SCI: GI50 (MCF10A)/GI50 (HT29); for GI50: MTT
[5] = test system: H460 lung; test: MTT cell viability assay (GI50), H460; type: cell-based, human; settings: for SCI: GI50 (MCF10A)/GI50 (H460); for GI50: H460 lung, MTT
[6] = test system: SJ-G2 glioblastoma; test: MTT cell viability assay (GI50), SJ-G2; type: cell-based, human; settings: for SCI: GI50 (MCF10A)/GI50 (SJ-G2); for GI50: SJ-G2 glioblastoma, MTT
[7] = test system: BE2-C neuroblastoma; test: MTT cell viability assay (GI50), BE2-C; type: cell-based, human; settings: for SCI: GI50 (MCF10A)/GI50 (BE2-C); for GI50: BE2-C neuroblastoma, MTT
[8] = test system: A431 skin; test: MTT cell viability assay (GI50), A431; type: cell-based, human; settings: for SCI: GI50 (MCF10A)/GI50 (A431); for GI50: A431 skin, MTT
[9] = test system: cisplatin-resistant ADDP ovarian variant; test: MTT cell viability assay (GI50), ADDP; type: cell-based, human; settings: for SCI: GI50 (MCF10A)/GI50 (ADDP); for GI50: cisplatin-resistant ADDP ovarian variant, MTT
[10] = test system: MIA pancreas; test: MTT cell viability assay (GI50), MIA; type: cell-based, human; settings: for SCI: GI50 (MCF10A)/GI50 (MIA); for GI50: MIA pancreas, MTT
[11] = test system: U87 glioblastoma; test: MTT cell viability assay (GI50), U87; type: cell-based, human; settings: for SCI: GI50 (MCF10A)/GI50 (U87); for GI50: U87 glioblastoma, MTT
[12] = Reduction with ascorbic acid (AsA) followed by 1H-NMR and 1D-195Pt-NMR; type: physicochemical; settings: PBS, DMSO-d6, 37 °C; for Approximate Reduction Time Points T50%: time at which 50% of reduction occurs; for Approximate Reduction Time Points T100%: time at which 100% of reduction occurs
Method: The biological reductant selected for this study is AsA. Briefly, sequential ^1H-NMR experiments were performed for 1 h at 37 °C, proceeded by 1D-^195Pt-NMR at 400 and −2800 ppm (30 min per region). It is noteworthy that the purity of each complex was examined prior the reduction experiments ensuring that no traces of platinum(II) species were evident in the samples used. All complexes were dissolved in PBS and DMSO-d6, without the reductant. Preliminary 1D-^195Pt-NMR measurements were conducted at 37 °C at 400 and −2800 ppm. […] Upon treatment of the platinum(IV) complexes with AsA, there was considerable reduction observed in the ^1H-NMR and 1D-^195Pt-NMR spectra acquired (Figures S31–S36). Notable changes in chemical multiplicity were recorded in the ^1H-NMR reduction spectra of P-5B3A, 5-5B3A and 56-5B3A (Figures S31, S33 and S35), especially along the aromatic region. The estimated reduction time points for P-5B3A, 5-5B3A and 56-5B3A are also outlined in Table 3.
The reduction behaviour of P-5B3A, 5-5B3A and 56-5B3A was investigated using ^1H-NMR and 1D-^195Pt-NMR spectroscopy, using previously established methods.

[13] = test system: Du145 prostate; test: MTT cell viability assay (GI50), Du145; type: cell-based, human; settings: for fold more potent than carboplatin / fold more potent than cisplatin / fold more potent than oxaliplatin: GI50 ratio; for GI50: MTT; for SCI: GI50 (MCF10A)/GI50 (Du145)
[14] = Lipophilicity by analytical HPLC (log kw); type: physicochemical
Text: The order of complexes by increasing lipophilicity is P-5B3A < 5-5B3A < 56-5B3A (Table 2 and Figure S27). It can be deduced that increasing methylation on the heterocyclic ligand increased lipophilicity. This trend agrees with published data. The determined log kw values are consistent and within the range of the log kw values determined for similar complexes reported in the literature.
Lipophilicity measurements were completed via analytical HPLC, as previously reported.

[15] = test system: non-tumour-derived MCF10A breast line; settings: for GI50: MCF10A non-tumour-derived breast, MTT
[16] = Stability in PBS monitored by analytical HPLC; type: physicochemical; settings: PBS pH ~7.4, ~10 mM, 37 °C, one week, HPLC at 254 nm
Method: The stability of P-5B3A, 5-5B3A and 56-5B3A was monitored via analytical HPLC.
The stability of P-5B3A, 5-5B3A and 56-5B3A were measured at 254 nm. Each complex was incubated in aqueous phosphate-buffered saline (PBS) solution (pH ~7.4) (total sample concentration, ~10 mM) at 37 °C for one week. Analytical HPLC was utilised to monitor the experiments.

[17] = Solubility in d.i.H2O; type: physicochemical; settings: room temperature
Method: The solubility of P-5B3A, 5-5B3A and 56-5B3A was tested in d.i.H2O at room temperature. Small aliquots of d.i.H2O were titrated into an Eppendorf tube containing 1 mg of each complex until full dissolution. For every titration, each sample solution was vortexed and sonicated.

Row | Compound | ROS Production ([1]; 24 h, control 60 ± 3) | ROS Production ([1]; 48 h, control 63 ± 4) | ROS Production ([1]; 72 h, control 85 ± 6) | SCI [2] | SCI [3] | SCI [4] | SCI [5] | SCI [6] | SCI [7] | SCI [8] | SCI [9] | SCI [10] | SCI [11] | Approximate Reduction Time Points T50% [12] [min] | Approximate Reduction Time Points T100% [12] [min] | GI50 ([13]; Du145 prostate) [nM] | SCI [13] | GI50 [2] [nM] | log kw Values [14] | GI50 [15] [nM] | further results
1 | N.N.[Cl][Pt][Cl] [Cisplatin, cis-diammineplatinum(II) dichloride] | 265 ± 19 RFU | 299 ± 22 RFU | 364 ± 18 RFU | 0.80 | 5.20 | 0.46 | 5.78 | 13.00 | 2.74 | 2.17 | 0.19 | 0.69 | 1.37 | – | – | – | – | – | – | – | –
2 | [Pt^IV(5-Mephen)(SS-DACH)(5B3A)(OH)]^2+ [5-5B3A] | 160 RFU and 160 ± 11 RFU | 230 RFU and 230 ± 9 RFU | 315 RFU and 315 ± 14 RFU | 0.10 | 0.45 | 1.06 | 0.63 | 0.10 | 0.06 | 0.20 | 0.83 | 0.61 | 0.08 | 5 to 10 | 30 | 10 ± 2 | 1.90 | 200 ± 21 | 1.91 | 19 ± 1.5 | fold more potent than carboplatin ([13]; Du145 prostate): 1500 fold; fold more potent than cisplatin ([13]; Du145 prostate): 120 fold; fold more potent than oxaliplatin ([13]; Du145 prostate): 290 fold; GI50 [3]: 42 ± 4 nM; fold more potent than cisplatin ([4]; HT29 colon, GI50 ratio): ~630 fold; GI50 ([4]; HT29 colon): 18 ± 0.67 nM; GI50 [5]: 30 ± 3 nM; GI50 [6]: 200 ± 40 nM; Stability [16]: adequately stable in aqueous solution for up to 1 week; Solubility [17]: 6 mg/mL; GI50 [7]: 340 ± 40 nM; GI50 [8]: 93 ± 8 nM; fold more potent than cisplatin ([9]; ADDP, GI50 ratio): ~1220 fold; GI50 [9]: 23 ± 0.88 nM; GI50 [10]: 31 ± 3 nM; GI50 [11]: 240 ± 23 nM
3 | [Pt^IV(5,6-Me2phen)(SS-DACH)(5B3A)(OH)]^2+ [56-5B3A] | 274 RFU and 274 ± 9 RFU | 418 RFU and 418 ± 15 RFU | 474 ± 10 RFU | 0.05 | 0.18 | 0.75 | 0.42 | 0.03 | 0.02 | 0.10 | 0.55 | 0.28 | 0.04 | 0 to 5 | 10 | 1.2 ± 0.6 | 2.75 | 68 ± 10 | 2.11 | 3.3 ± 0.9 | fold more potent than 56MESS ([13]; Du145 prostate): 0.3 fold; fold more potent than carboplatin ([13]; Du145 prostate): ≥ 12,500 fold; fold more potent than cisplatin ([13]; Du145 prostate): 1000 fold; fold more potent than oxaliplatin ([13]; Du145 prostate): at least 2400 fold; GI50 [3]: 18 ± 6.1 nM; GI50 ([4]; HT29 colon): 4.4 ± 1.6 nM; GI50 [5]: 7.8 ± 2.2 nM; GI50 [6]: 110 ± 20 nM; Stability [16]: adequately stable in aqueous solution for up to 1 week; Solubility [17]: 4 mg/mL; GI50 [7]: 150 ± 24 nM; GI50 [8]: 33 ± 8.4 nM; fold more potent than 56MESS ([9]; ADDP): 0.5 fold; GI50 [9]: 6 ± 3 nM; GI50 [10]: 12 ± 3 nM; GI50 [11]: 88 ± 7 nM
4 | [Pt^IV(phen)(SS-DACH)(5B3A)(OH)]^2+ [P-5B3A] | 156 RFU and 156 ± 16 RFU | 214 RFU and 214 ± 12 RFU | 246 ± 11 RFU | 0.05 | 0.60 | 1.40 | 0.65 | 0.22 | 0.02 | 0.23 | 0.85 | 0.90 | 0.15 | 10 to 15 | 60 | 190 ± 23 | 1.47 | 5400 ± 2800 | 1.82 | 280 ± 39 | fold difference in cytotoxicity versus PHENSS [15]: 0.9 fold; GI50 [3]: 470 ± 18 nM; fold more potent than carboplatin ([4]; HT29 colon, GI50 ratio): ≥ 250 fold; fold more potent than cisplatin ([4]; HT29 colon, GI50 ratio): at least 57 fold; fold more potent than oxaliplatin ([4]; HT29 colon, GI50 ratio): ≥ 5 fold; GI50 ([4]; HT29 colon): 200 ± 27 nM; GI50 [5]: 430 ± 50 nM; GI50 [6]: 1300 ± 200 nM; Stability [16]: adequately stable in aqueous solution for up to 1 week; Solubility [17]: 7 mg/mL; GI50 [7]: 13000 nM; GI50 [8]: 1200 ± 100 nM; fold more potent than carboplatin ([9]; ADDP, GI50 ratio): 152 fold; fold more potent than cisplatin ([9]; ADDP, GI50 ratio): at least 85 fold; GI50 [9]: 330 ± 8.8 nM; GI50 [10]: 310 ± 26 nM; GI50 [11]: 1900 ± 150 nM
